Experimental data as given in patent US20050154046A1, “Methods of treating an inflammatory-related disease” (priority 2004, published 2005).
“Also recorded” adds a separate entry of the source. One block for each molecule: values may come before it.

Columns and labels:
mouse vaginal epithelium = experiment: Mitotic index in estrogen-stimulated vaginal epithelium of female mice; assay type: in vivo, Kunming mice; details: 1.0 mg/kg i.p. once a day, 3 days; percent of mitotic cells
From the text: (§1) Materials: Meisoindigo was synthesized, purified and its structure characterized by Natrogen Therapeutics, Inc. The purity of the compound was 98.5% as described in the Examples above. A suspension of Meisoindigo was freshly prepared in 0.5% sodium methylcellulose and given orally for the animal tests described below. Other chemicals used in the following experiments were purchased from Sigma.
(§2) Pathogen-free female Kunming mice at 12 weeks of age with body weights from 22 to 25 grams were housed 5 per cage, and given, ad libitum, fresh tap water and commercial rodent pellets. Animal rooms were controlled at 24±2° C. with a relative humidity of 60±5% and a 12 hour light/dark cycle (07:00-19:00 hr).
Anti-mitotic Effects of Meisoindigo on Mouse Vaginal Epithelium: Sixty Kunming female mice were randomly divided into 5 groups, 20 in one control group, and 10 in 4 drug-tested groups. All mice were given estrogen at a dose of 0.2 mg/animal for 3 days to allow vaginal epithelial cells to develop under the stimulation of estrogen hormone. Meisoindigo was freshly prepared as a suspension in 0.5% of sodium methylcellulose. The drug was given orally at doses of 50, 100, and 200 mg/kg, respectively, once a day for 3 days. Methotrexate (MTX) was used as a positive control at a dose of 1 mg/kg, i.p. once a day for the same period of time. […] The mitotic index (percent of mitotic cells) was calculated.

[1] = system: scale epithelial cells of mouse-tails; experiment: Mouse-tail model: granular layer formation in scale epithelial cells; assay type: in vivo, Kunming mice; details: 1.0 mg/kg i.p. once every 2 days, 13 days
From the text: as §1, §2
Effect of Meisoindigo on Epidermal Cell Differentiation in Mouse Tails: Sixty female Kunming mice were randomly divided into 5 groups, 20 in one control group, and 10 in 4 drug-tested groups. Meisoindigo was freshly prepared as a suspension in 0.5% of sodium methylcellulose. The drug was given orally at doses of 50, 100, and 200 mg/kg, respectively, once a day for 13 days. Methotrexate (MTX) was used as a positive control at a dose of 1 mg/kg, i.p. once every 2 days, for the same period of time. The same volume and vehicle for Meisoindigo suspension were used as a negative control. […] Slides were prepared for histological examination as originally described by Bosman et. al., (106). The slides were prepared by cutting the tails into longitudinal sections, and Hematoxylin and Eosin (H&E) stained. The slides were then examined with a light microscope to evaluate the degree of orthokeratosis (OK) and epidermal hyperplasia. The former was done by measuring the horizontal length of the fully developed granular layer stratum granulosum within an individual scale in relation to its total length. Drug activity was defined by the increase of the positive scale cells containing granular layer stratum granulosum between two folliculus pili.

[2] = molecular target: T1, glycogen synthase kinase-3β (GSK-3β) (Homo sapiens, UniProt P49841); experiment: Effect on glycogen synthase kinase-3β in cells; assay type: cell-based; details: as high as 50 μM; data not shown
T1 construct: endogenous in cells
T1 sequence (P49841 whole entry): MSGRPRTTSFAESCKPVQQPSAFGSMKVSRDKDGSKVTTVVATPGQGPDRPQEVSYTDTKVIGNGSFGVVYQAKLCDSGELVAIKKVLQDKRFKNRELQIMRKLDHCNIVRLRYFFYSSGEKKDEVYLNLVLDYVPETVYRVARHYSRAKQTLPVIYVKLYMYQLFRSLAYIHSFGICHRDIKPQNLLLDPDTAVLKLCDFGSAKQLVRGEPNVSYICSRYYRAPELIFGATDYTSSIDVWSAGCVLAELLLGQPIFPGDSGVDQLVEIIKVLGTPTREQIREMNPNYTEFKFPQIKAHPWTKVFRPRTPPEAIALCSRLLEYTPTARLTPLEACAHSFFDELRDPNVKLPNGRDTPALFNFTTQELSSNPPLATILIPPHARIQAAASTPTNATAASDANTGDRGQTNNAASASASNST

cyclin D1 = experiment: Cyclin D1 levels in THP-1 cells; assay type: cell-based, human; details: 31.25 and 62.5 nM, 24 h; data not shown
cdk4/6 = experiment: Cyclin dependent kinase activity in THP-1 cells (immunoprecipitation, histone H1 phosphorylation); assay type: cell-based, human; details: 31.25 and 62.5 nM, 24 h
Description: (§3) 2) Effects of Meisoindigo and/or NATURA on activity of cyclin dependent kinases (CDK) in THP-1 cells (99): THP-1 cells grown exponentially were exposed to […] of Meisoindigo or NATURA for 24 hr, respectively.
(§4) The cells were harvested, washed, and total proteins extracted as described previously (100). One hundred μg of the proteins were immuno-precipitated using antibodies against either cdk2, cdk4/6 or cyclin D1 overnight at 4° C. in the presence of a cocktail of protease inhibitors. The immuno-precipitates were washed 4 times with protein extraction buffer and once with kinase assay buffer, and reacted with […] histone H1 in the presence of [γ-^32P]-ATP (10 μCi/10 μM). The phosphorylated histone H1 (represent cdk activity) was measured by scintillation counting or by SDS-polyacrylaimde gel electrophoresis (101, 102).

IL-6 = IL-6 secretion (ELISA) in LPS-stimulated THP-1 cells; assay type: cell-based, human; details: as low as 31.25 nM (31.25 and 62.5 nM in FIG. 6), 24 h
Description: (§5) Viability of cells was examined under microscope after trypan blue staining.
Standard IL-6 protein was used to establish a standard curve for the calculation of IL-6 in the medium secreted by the cells (LPS-stimulated or non-stimulated cells in the presence or absence of Meisoindigo).
(§6) 1) Effects of Meisoindigo and NATURA on the expression/secretion of cytokines IL-1β, IL-6, IL-10: The human monocytic THP-1 cells grown exponentially were stimulated with or without 1 μM of lipopolysaccharide (LPS, Sigma), and exposed for 24 hours to different concentrations of Meisoindigo and NATURA (from 31.25 nM and 62.5 nM), respectively. Viability of cells was examined by trypan blue exception assay.

IL-1β = IL-1β secretion (ELISA) in LPS-stimulated THP-1 cells; assay type: cell-based, human; details: as low as 31.25 nM (31.25 and 62.5 nM in FIG. 6), 24 h
Description: It was prepared in a solution of dimethyl sulfoxide (DMSO), and stored under −20° C. for the experiments in vitro. Human monocytic cell line, THP-1 (90), was purchased from ATCC. The cells were maintained according to the supplier's instructions. Approximately 1×10^5 cells/ml were cultured at 37° C., 5% CO2 for 24 hours in Modified RPMI-1640 Medium (Invitrogen) supplemented with 10% FBS.
Viability of cells was examined under microscope after trypan blue staining. Protein levels of IL-1β secreted into the culture media by the cells were then measured by ELISA and calculated from its standard curve using an assay Kit from R&D Systems according to instructions provided by the supplier.
Statistical Analysis: All data were expressed as a mean±SD. Statistical significance of any difference between the control (LPS) and experimental groups was determined by the Student's t-test. P values between the 2 groups must be at least smaller than 0.05 to be considered statistically significant.
as §6

IL-10 = IL-10 secretion (ELISA) in THP-1 cells; assay type: cell-based, human
From the text: as §5
Viability of cells was examined by trypan blue exception assay.

CDK2 = molecular target: T2, CDK2 (Homo sapiens, UniProt P24941); experiment: Cyclin dependent kinase activity in THP-1 cells (immunoprecipitation, histone H1 phosphorylation); assay type: cell-based; details: 24 h
T2 construct: endogenous in cells; host or cells: THP-1
Description: as §3, §4

SMILES: CN(Cc1cnc2nc(N)nc(N)c2n1)c1ccc(C(=O)N[C@@H](CCC(=O)O)C(=O)O)cc1 [MTX, Methotrexate, reference compound]
Mitotic Index (X ± SD) (mouse vaginal epithelium): 14.76±4.29 | Granulous Scales (X ± SD) [1]: 17.22 ± 4.92

activity on GSK-3β [2]: no activity was observed | partial inhibition of CDK activity (CDK2; 1.5 μM, FIG. 6B): 23%
SMILES: CC(=O)OC1COC(N2C(=O)/C(=C3/C(=O)Nc4ccccc43)c3ccccc32)C(OC(C)=O)C1OC(C)=O (centres unmarked) [NATURA]
effect on levels of cyclin D1 (cyclin D1): failed to inhibit | inhibition of cyclin dependent kinase 4 and 6 activity (cdk4/6): failed to inhibit | effect on IL-6 production/secretion (IL-6): significantly inhibit | effect on IL-1β production (IL-1β): significantly inhibit | effect on IL-10 production (IL-10; 31.25 and 62.5 nM, 24 h): promoted production | elevation of LPS-suppressed IL-10 (IL-10; similar concentrations (as low as 31.25 nM), FIG. 6A): ~2 fold | inhibition of CDK2 activity (CDK2; 31.25 and 62.50 nM): failed to inhibit; also recorded: no inhibitory effect
